Test results from patent US20250228243A1, “METHODS AND COMPOSITIONS FOR PPO HERBICIDE TOLERANCE” (Monsanto Technology LLC, priority 2024, published 2025).

Tests used:
Assay type in all cases: in vivo
Conditions in all cases: 15 days after application, 2-4 leaf stage, 0.5% v/v Mero, scale 0-100 (percentage of leaf area damaged), average of 4 replicates
[1] = system: Soybean - Inbred, Conventional; experiment: Herbicide injury rating, greenhouse, conventional soybean
Method: (§1) Seeds of the regenerated transgenic plants described above were sown in 12-cm tall plastic pots containing standard soil (14.7% sand, 19.9% clay, 65.4% silt, and 1.8% organic matter). Transgenic cotton and corn seed were sown at a density of one seed per pot, whereas soybean was sown at a density of three seeds per pot. Plants were grown in a greenhouse with 60% relative humidity in a light cycle of 13 hour day and 11 hour night. The temperature was kept at 23° C. during the day and 12° C. at night. Herbicide tolerance of transgenic soybean, inbred corn, hybrid corn, and cotton plants, to herbicidal formulations comprising any of A1 to A3 and A7 was measured by applying respective formulations to plants at the 2-4 leaf stage (corresponding to BBCH 12-14) at dose rates of 100 or 200 g ai/ha. Methylated rapeseed oil (Mero) is used as an adjuvant and added to the spray mix for each herbicide at 0.5% v/v. Plants were visually assessed for herbicide injury at the following time points: 8 days, 15 days, 22 days after application. Unsprayed transgenic plants were used for phenotypic comparison with unsprayed wild-type plants.

[2] = system: Soybean - Inbred, PPO-Transgenic; experiment: Herbicide tolerance evaluation, greenhouse, PPO-transgenic soybean expressing HemG PPO H_N90
Method: as §1, with “Plant transformation vectors were constructed for expressing a chloroplast transit peptide operably linked to the PPO H_[…] (SEQ ID NO:1) in transgenic soybean, inbred corn, hybrid corn, and cotton plants, and introduced into seed-derived explants of soybean, inbred and hybrid corn, and cotton, respectively, through Agrobacterium tumefaciens-mediated transformation using standard methods known in the art. The regenerated R0 plants were analyzed to select for events with a single copy insertion for advancement to R1 nursery for R1 seed production. Seeds” for “Seeds”

[3] = system: Corn - Inbred, Conventional; experiment: Herbicide injury rating, greenhouse, conventional inbred corn
Method: as §1

[4] = system: Corn - Inbred, PPO-Transgenic; experiment: Herbicide tolerance evaluation, greenhouse, PPO-transgenic inbred corn expressing HemG PPO H_N90
Method: as §1, with “Plant transformation vectors were constructed for expressing a chloroplast transit peptide operably linked to the PPO H_[…] (SEQ ID NO:1) in transgenic soybean, inbred corn, hybrid corn, and cotton plants, and introduced into seed-derived explants of soybean, inbred and hybrid corn, and cotton, respectively, through Agrobacterium tumefaciens-mediated transformation using standard methods known in the art. The regenerated R0 plants were analyzed to select for events with a single copy insertion for advancement to R1 nursery for R1 seed production. Seeds” for “Seeds”

[5] = system: Corn - Hybrid, Conventional; experiment: Herbicide injury rating, greenhouse, conventional hybrid corn
Method: as §1

[6] = system: Corn - Hybrid, PPO-Transgenic; experiment: Herbicide tolerance evaluation, greenhouse, PPO-transgenic hybrid corn expressing HemG PPO H_N90
Method: as §1, with “Plant transformation vectors were constructed for expressing a chloroplast transit peptide operably linked to the PPO H_[…] (SEQ ID NO:1) in transgenic soybean, inbred corn, hybrid corn, and cotton plants, and introduced into seed-derived explants of soybean, inbred and hybrid corn, and cotton, respectively, through Agrobacterium tumefaciens-mediated transformation using standard methods known in the art. The regenerated R0 plants were analyzed to select for events with a single copy insertion for advancement to R1 nursery for R1 seed production. Seeds” for “Seeds”

[7] = system: Cotton - Inbred, Conventional; experiment: Herbicide injury rating, greenhouse, conventional cotton
Method: as §1

[8] = system: Cotton - Inbred, PPO-Transgenic; experiment: Herbicide tolerance evaluation, greenhouse, PPO-transgenic cotton expressing HemG PPO H_N90
Method: as §1, with “Plant transformation vectors were constructed for expressing a chloroplast transit peptide operably linked to the PPO H_[…] (SEQ ID NO:1) in transgenic soybean, inbred corn, hybrid corn, and cotton plants, and introduced into seed-derived explants of soybean, inbred and hybrid corn, and cotton, respectively, through Agrobacterium tumefaciens-mediated transformation using standard methods known in the art. The regenerated R0 plants were analyzed to select for events with a single copy insertion for advancement to R1 nursery for R1 seed production. Seeds” for “Seeds”

SMILES	Injury rating, Soybean - Inbred Conventional ([1]; 100 g ai/ha)	Injury rating, Soybean - Inbred Conventional ([1]; 200 g ai/ha)	Injury rating, Soybean - Inbred PPO-Transgenic ([2]; 100 g ai/ha)	Injury rating, Soybean - Inbred PPO-Transgenic ([2]; 200 g ai/ha)	Injury rating, Corn - Inbred Conventional ([3]; 100 g ai/ha)	Injury rating, Corn - Inbred Conventional ([3]; 200 g ai/ha)	Injury rating, Corn - Inbred PPO-Transgenic ([4]; 100 g ai/ha)	Injury rating, Corn - Inbred PPO-Transgenic ([4]; 200 g ai/ha)	Injury rating, Corn - Hybrid Conventional ([5]; 100 g ai/ha)	Injury rating, Corn - Hybrid Conventional ([5]; 200 g ai/ha)	Injury rating, Corn - Hybrid PPO-Transgenic ([6]; 100 g ai/ha)	Injury rating, Corn - Hybrid PPO-Transgenic ([6]; 200 g ai/ha)	Injury rating, Cotton - Inbred Conventional ([7]; 100 g ai/ha)	Injury rating, Cotton - Inbred Conventional ([7]; 200 g ai/ha)	Injury rating, Cotton - Inbred PPO-Transgenic ([8]; 100 g ai/ha)	Injury rating, Cotton - Inbred PPO-Transgenic ([8]; 200 g ai/ha)
CCOC(=O)C(C)OC(=O)C1(Oc2cc(-n3c(=O)cc(C(F)(F)F)n(C)c3=O)c(F)cc2Cl)CC1 (stereo not shown) [Compound A1, 1-ethoxy-1-oxopropan-2-yl 1-{2-chloro-4-fluoro-5-[3-methyl-2,6-dioxo-4-(trifluoromethyl)-3,6-dihydropyrimidin-1 (2H)-yl]phenoxy}cyclopropanecarboxylate]	100	100	0	0	100	100	0	0	100	100	0	0	100	100	0	0
CC(OC(=O)C1(Oc2cc(-n3c(=O)cc(C(F)(F)F)n(C)c3=O)c(F)cc2Cl)CC1)C(=O)O (stereo not shown) [Compound A2, 2-{[(1-{2-chloro-4-fluoro-5-[3-methyl-2,6-dioxo-4-(trifluoromethyl)-3,6-dihydropyrimidin-1 (2H)-yl]phenoxy}cyclopropyl)carbonyl]oxy}propanoic acid]	100	100	0	0	100	100	0	0	100	100	0	0	100	100	0	0
COC(=O)C(C)OC(=O)C1(Oc2cc(-n3c(=O)cc(C(F)(F)F)n(C)c3=O)c(F)cc2Cl)CC1 (stereo not shown) [Compound A3, 1-methoxy-1-oxopropan-2-yl 1-{2-chloro-4-fluoro-5-[3-methyl-2,6-dioxo-4-(trifluoromethyl)-3,6-dihydropyrimidin-1 (2H)-yl]phenoxy}cyclopropanecarboxylate]	100	100	0	0	100	100	0	0	100	100	0	0	100	100	0	0
C=CCOC(=O)C(C)OC(=O)C1(Oc2cc(-n3c(=O)cc(C(F)(F)F)n(C)c3=O)c(F)cc2Cl)CC1 (stereo not shown) [Compound A7, 1-(allyloxy)-1-oxopropan-2-yl 1-{2-chloro-4-fluoro-5-[3-methyl-2,6-dioxo-4-(trifluoromethyl)-3,6-dihydropyrimidin-1 (2H)-yl]phenoxy}cyclopropanecarboxylate.]	100	100	0	0	100	100	0	0	100	100	0	0	100−	100	0	0
